Laboratory results from patent US20250059175A1, “Mutant Pi3k-Alpha Inhibitors And Their Use As Pharmaceuticals” (Prelude Therapeutics Incorporated, priority 2023, published 2025).

Legend:
[1] = system: phosphorylation of AKT on Ser473 (PI3K pathway) in T-47D (heterozygous PIK3CA H1047R) cell line; experiment: PI3K pathway activation assay (pAKT Ser473 HTRF), T-47D cells; format: cell-based; details: Homo sapiens, T47D, 2 h; T-47D (heterozygous PIK3CA H1047R) cells, two hours of treatment, pAKT Ser473 HTRF; read-out: T47D pAKT IC50
Description: (§1) The inhibitory activity of the compounds of the disclosure was evaluated by measuring phosphorylation of AKT on Ser473 as a readout of the PI3K pathway using HTRF (CisBio catalog number: 64AKSPE). These studies were conducted in the T-47D (heterozygous PIK3CA H1047R) and SKBR3 (PIK3CA WT) cell lines. Cells were maintained in a 37° C. incubator at 5% CO2 in the following media: T-47D: RPMI 1640, ATCC© Modification (Gibco, A10491-01) supplemented with 10% v/v FBS (Gibco, 26140-079), 1% penicillin streptomycin (Gibco, 15140-122), and 7.4 ug/mL insulin (MilliporeSigma, I9278); SKBR3: McCoy's 5a (Modified) Medium (Gibco, 16600-082) supplemented with 10% v/v FBS (Gibco, 26140-079). Cells were seeded in 384-well plates at a density of 4,000 cells/well. Compounds dissolved in DMSO were added using a digital dispense (D300E, Tecan) 10-point serial dilution. After two hours of treatment, cells were lysed for thirty minutes and then incubated with detection reagents per HTRF kit material and manufacturer's instructions. Fluorescence signal was measured with a multimode plate reader (Envision 2105, Perkin Elmer). Fluorescent signal was normalized to background and DMSO controls to obtain percent inhibition/activity for each compound.

[2] = system: phosphorylation of AKT on Ser473 (PI3K pathway) in SKBR3 (PIK3CA WT) cell line; experiment: PI3K pathway activation assay (pAKT Ser473 HTRF), SKBR3 cells; format: cell-based; details: Homo sapiens, SK-BR-3, 2 h, two hours of treatment
Description: as §1

SMILES	IC50 [1] [nM]	IC50 [2] [nM]
COc1cc(C[C@H]2COC(=O)N2c2cc(C)cc([C@@H](C)Nc3ccc(Cl)nc3C(=O)O)n2)c(F)cn1 [Example 29, 6-Chloro-3-(((R)-1-(6-((S)-4-((5-fluoro-2-methoxypyridin-4-yl)methyl)-2-oxooxazolidin-3-yl)-4-methylpyridin-2-yl)ethyl)amino)picolinic acid]	< 100	> 10000
Cc1cc([C@@H](C)Nc2ccc(Cl)nc2C(=O)O)nc(N2C(=O)N(C)C[C@@H]2Cc2ccc(F)cc2)c1 [Example 58, 6-Chloro-3-(((R)-1-(6-((S)-5-(4-fluorobenzyl)-3-methyl-2-oxoimidazolidin-1-yl)-4-methylpyridin-2-yl)ethyl)amino)picolinic acid]	< 100	> 10000
Cc1cc([C@@H](C)Nc2ccc(Cl)nc2C(=O)O)nc(N2C(=O)N(C)C[C@@H]2Cc2ccc(F)cc2F)c1 [Example 59, 6-Chloro-3-(((R)-1-(6-((S)-5-(2,4-difluorobenzyl)-3-methyl-2-oxoimidazolidin-1-yl)-4-methylpyridin-2-yl)ethyl)amino)picolinic acid]	100 to 1000	> 10000
Cc1cc([C@@H](C)Nc2ccc(Cl)nc2C(=O)O)nc(N2C(=O)N(C)C[C@@H]2Cc2ccccc2)c1 [Example 60, 3-(((R)-1-(6-((S)-5-Benzyl-3-methyl-2-oxoimidazolidin-1-yl)-4-methylpyridin-2-yl)ethyl)amino)-6-chloropicolinic acid]	< 100	1000 to 10000

Second part, the molecule after the results:

IC50 [1] [nM]	IC50 [2] [nM]	SMILES
< 100	> 10000	Cc1cc([C@@H](C)Nc2ccc(Cl)nc2C(=O)O)nc(N2C(=O)OC[C@@H]2Cc2ccc(F)cc2F)c1 [Example 26, 6-Chloro-3-(((R)-1-(6-((S)-4-(2,4-difluorobenzyl)-2-oxooxazolidin-3-yl)-4-methylpyridin-2-yl)ethyl)amino)picolinic acid]
< 100	> 10000	COc1ccc(C[C@H]2COC(=O)N2c2cc(C)cc([C@@H](C)Nc3ccc(Cl)nc3C(=O)O)n2)c(F)c1 [Example 27, 6-Chloro-3-(((R)-1-(6-((S)-4-(2-fluoro-4-methoxybenzyl)-2-oxooxazolidin-3-yl)-4-methylpyridin-2-yl)ethyl)amino)picolinic acid]
< 100	> 10000	Cc1cc([C@@H](C)Nc2ccc(Cl)nc2C(=O)O)nc(N2C(=O)OC[C@@H]2Cc2cccc(C#N)c2)c1 [Example 48, 6-Chloro-3-(((R)-1-(6-((S)-4-(3-cyanobenzyl)-2-oxooxazolidin-3-yl)-4-methylpyridin-2-yl)ethyl)amino)picolinic acid]
< 100	> 10000	Cc1cc([C@@H](C)Nc2ccc(Cl)nc2C(=O)O)nc(N2C(=O)OC[C@@H]2Cc2ccc(C#N)cc2F)c1 [Example 49, 6-Chloro-3-(((R)-1-(6-((S)-4-(4-cyano-2-fluorobenzyl)-2-oxooxazolidin-3-yl)-4-methylpyridin-2-yl)ethyl)amino)picolinic acid]
< 100	1000 to 10000	C[C@@H](Nc1ccc(Cl)nc1C(=O)O)c1cc(F)cc(N2C(=O)OC[C@@H]2Cc2ccccc2F)c1 [Example 61, 6-Chloro-3-(((R)-1-(3-fluoro-5-((S)-4-(2-fluorobenzyl)-2-oxooxazolidin-3-yl)phenyl)ethyl)amino)picolinic acid]
